Measurements taken from patent US20250320234A1, “LONP1 INHIBITOR COMPOUNDS, USES AND METHODS” (Pretzel Therapeutics, Inc., priority 2021, published 2025).

biological target: LONP1 (NM_004793.4) (Homo sapiens (Human), UniProt P36776); assay: LONP1 FRET-based protease activity assay with fluorogenic peptide substrate; assay type: biochemical; conditions: LONP1 15 nM, substrate 3 μM, 1 hour at 37° C.; average of a minimum of two repeats
Experimental: The inhibitory activity of the compounds of the present invention against LONP1, 20S proteasome and other proteases are determined by assays known to persons of ordinary skill in the art (see, e.g., Fishovitz, J. et al. “Active-Site-Directed Chemical Tools for Profiling Mitochondrial Lon Protease” ACS Chem. Biol. 6, 781-788 (2011)).
In this Example, LONP1 (NM_004793.4) activity was measured by a FRET-based assay for protease activity using a fluorogenic peptide DabcylYRGIT(2Abu)SORQK(5-FAM) (Cambridge Research Biochemicals) as substrate. LONP1 activity is followed by an increase in fluorescence signal due to the degradation of the peptide. Inhibition of LONP1 protease activity by an inhibitor compound of the disclosure elicits a decrease in the fluorescent signal.
The assay is performed in a 384-well plate (Greiner, cat. #781076) using the following reagents and conditions: substrate (3 μM) was incubated for 1 hour at 37° C. in the presence of LONP1 (15 nM as monomer), 25 mM Tris pH 8.0, 10 mM MgCl2, 0.03 mg/mL […], 0.5 mM DTT, 0.0003% Tween-20, 10 mM NaCl, 0.06 mM ATP and 0.5 mM EGTA in a 15 μL final volume. The LONP1-containing mix (10 μL) was incubated with the test compound for 15 min at 37° C. before adding the peptide-containing mix (5 μL). Solutions were dispensed using a small cassette-Multidrop Combi (Thermo Scientific). Fluorescence was measured using a PheraStar plate reader (BMG Labtech) FI-FRET EX 485 nm Em 520 nm.
Each value is based on an average of a minimum of two repeats.

Sequence of LONP1 (NM_004793.4) (P36776 68-959): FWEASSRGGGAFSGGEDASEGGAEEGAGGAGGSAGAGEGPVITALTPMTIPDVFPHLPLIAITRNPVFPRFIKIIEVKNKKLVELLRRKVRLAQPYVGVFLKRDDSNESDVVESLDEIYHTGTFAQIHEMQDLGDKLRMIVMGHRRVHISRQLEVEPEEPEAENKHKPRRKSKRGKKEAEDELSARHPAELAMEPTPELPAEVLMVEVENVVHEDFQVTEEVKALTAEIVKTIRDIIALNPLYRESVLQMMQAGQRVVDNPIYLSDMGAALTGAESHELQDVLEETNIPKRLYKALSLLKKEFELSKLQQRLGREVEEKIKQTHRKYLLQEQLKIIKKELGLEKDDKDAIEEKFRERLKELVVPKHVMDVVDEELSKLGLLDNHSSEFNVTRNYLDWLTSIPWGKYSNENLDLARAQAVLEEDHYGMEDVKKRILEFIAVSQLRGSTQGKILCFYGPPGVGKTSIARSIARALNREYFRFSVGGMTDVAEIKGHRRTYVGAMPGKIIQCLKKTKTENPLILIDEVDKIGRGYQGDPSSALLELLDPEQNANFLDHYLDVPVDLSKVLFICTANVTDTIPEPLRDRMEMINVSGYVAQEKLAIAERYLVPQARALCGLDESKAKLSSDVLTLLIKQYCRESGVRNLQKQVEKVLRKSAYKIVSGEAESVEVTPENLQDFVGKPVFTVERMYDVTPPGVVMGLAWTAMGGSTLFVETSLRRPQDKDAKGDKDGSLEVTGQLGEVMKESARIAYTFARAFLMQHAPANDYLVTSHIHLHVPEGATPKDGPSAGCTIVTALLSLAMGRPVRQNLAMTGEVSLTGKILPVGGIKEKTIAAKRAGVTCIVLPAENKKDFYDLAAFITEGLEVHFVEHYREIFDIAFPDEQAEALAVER

Row | SMILES | IC50 [nM]
1 | COC[C@@H](NC(=O)c1cnccn1)C(=O)N[C@@H](CCCc1cccc(OC)c1)B(O)O [Compound 17, ((R)-1-((R)-3-methoxy-2-(pyrazine-2-carboxamido)propanamido)-4-(3-methoxyphenyl)butyl)boronic acid] | 50 to 500
2 | COC[C@@H](NC(=O)c1cnccn1)C(=O)N[C@@H](CC1CC1)B(O)O [Compound 18, ((R)-2-cyclopropyl-1-((R)-3-methoxy-2-(pyrazine-2-carboxamido)propanamido)ethyl)boronic acid] | 50 to 500
3 | COC[C@@H](NC(=O)c1cnccn1)C(=O)N[C@@H](CCCc1cccc(Cl)c1)B(O)O [Compound 15, ((R)-4-(3-chlorophenyl)-1-((R)-3-methoxy-2-(pyrazine-2-carboxamido)propanamido)butyl)boronic acid] | 50 to 500
4 | COC[C@@H](NC(=O)[C@H]1CCC(=O)N1)C(=O)N[C@@H](CCCc1ccccc1)B(O)O [Compound 8, ((R)-1-((R)-3-methoxy-2-((R)-5-oxopyrrolidine-2-carboxamido)propanamido)-4-phenylbutyl)boronic acid] | 50 to 500
5 | COC[C@@H](NC(=O)c1cnccn1)C(=O)N[C@H](CCOc1ccc(Cl)c(F)c1)B(O)O [Compound 26, ((S)-3-(4-chloro-3-fluorophenoxy)-1-((R)-3-methoxy-2-(pyrazine-2-carboxamido)propanamido)propyl)boronic acid] | 500 to 5000
6 | COC[C@H](C(=O)N[C@@H](CCCc1ccccc1)B(O)O)N1C(=O)CCC1=O [Compound 19, ((R)-1-((R)-2-(2,5-dioxopyrrolidin-1-yl)-3-methoxypropanamido)-4-phenylbutyl)boronic acid] | 500 to 5000
7 | COC[C@@H](NC(=O)c1cnccn1)C(=O)N[C@@H](COCc1ccccc1)B(O)O [Compound 2, ((R)-2-(benzyloxy)-1-((R)-3-methoxy-2-(pyrazine-2-carboxamido)propanamido)ethyl)boronic acid] | 50 to 500
8 | COC[C@@H](NC(=O)c1cnccn1)C(=O)N[C@@H](CCOc1ccc(Cl)cc1C)B(O)O [Compound 27, ((R)-3-(4-chloro-2-methylphenoxy)-1-((R)-3-methoxy-2-(pyrazine-2-carboxamido)propanamido)propyl)boronic acid] | 50 to 500
9 | COC[C@H](C(=O)N[C@@H](CCCc1ccccc1)B(O)O)N1C(=O)c2ccccc2C1=O [Compound 16, ((R)-1-((R)-2-(1,3-dioxoisoindolin-2-yl)-3-methoxypropanamido)-4-phenylbutyl)boronic acid] | 50 to 500

Next, values leading:

Row | IC50 [nM] | SMILES
10 | 50 to 500 | COC[C@@H](NC(=O)[C@H]1CCCCO1)C(=O)N[C@@H](CCCc1ccccc1)B(O)O [Compound 41, ((R)-1-((R)-3-methoxy-2-((R)-tetrahydro-2H-pyran-2-carboxamido)propanamido)-4-phenylbutyl)boronic acid]
11 | 50 to 500 | CO[C@@H](C)[C@@H](NC(=O)c1cnccn1)C(=O)N[C@@H](CCOc1ccccc1)B(O)O [Compound 30, ((R)-1-((2R,3S)-3-methoxy-2-(pyrazine-2-carboxamido)butanamido)-3-phenoxypropyl)boronic acid]
12 | 500 to 5000 | O=C(N[C@H](CO)C(=O)N[C@@H](CCCc1ccc(O)cc1)B(O)O)c1cnccn1 [Compound 39, ((R)-1-((R)-3-hydroxy-2-(pyrazine-2-carboxamido)propanamido)-4-(4-hydroxyphenyl)butyl)boronic acid]
13 | 500 to 5000 | COC[C@@H](NC(=O)c1cnccn1)C(=O)N[C@@H](CCCc1ccc(O)cc1)B(O)O [Compound 40, ((R)-4-(4-hydroxyphenyl)-1-((R)-3-methoxy-2-(pyrazine-2-carboxamido)propanamido)butyl)boronic acid]
14 | 500 to 5000 | COC[C@@H](NC(=O)c1cnccn1)C(=O)N[C@@H](CCC(=O)c1ccccc1)B(O)O [Compound 53, ((R)-1-((R)-3-methoxy-2-(pyrazine-2-carboxamido)propanamido)-4-oxo-4-phenylbutyl)boronic acid]
15 | 500 to 5000 | COC[C@@H](NC(=O)c1cnccn1)C(=O)N[C@H](CCOc1ccc(Cl)cc1F)B(O)O [Compound 29, ((S)-3-(4-chloro-2-fluorophenoxy)-1-((R)-3-methoxy-2-(pyrazine-2-carboxamido)propanamido)propyl)boronic acid]
16 | 50 to 500 | COC[C@@H](NC(=O)c1cnccn1)C(=O)N[C@@H](CC(C)C)B(O)O [Compound 38, ((R)-1-((R)-3-methoxy-2-(pyrazine-2-carboxamido)propanamido)-3-methylbutyl)boronic acid]
